Laboratory results taken from US7973047B2, “Beta-Secretase modulators and methods of use” (Amgen Inc., priority 2010, dated 2011).

What follows are compounds tested on Aβ40 in conditioned medium of cells stably expressing Amyloid Precursor Protein (APP) (assay: BACE cell-based assay: Aβ40 in conditioned medium by sandwich ELISA). Details: cell based assay data of Table 4; unit inferred; read-out: Cell Assay.
Summary of the method: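 Aβ40 in conditioned medium was read by time-resolved fluorescence sandwich ELISA (capture pAb40, detection biotinylated 6E10, 4° C incubations). Compounds were applied for 24 h to cells stably expressing APP, at 10 doses from 100 or 10 μM top, 0.1% DMSO. IC50 derived from percent of control.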

| IC50 | SMILES |
| --- | --- |
| 105 nM | COC(=O)N[C@@H](Cc1ccccc1)[C@H](O)CN[C@H]1CC(C)(C)Cc2sc(CC(C)(C)C)cc21 [compound 655, methyl ((1S,2R)-3-(((4S)-2-(2,2-dimethylpropyl)-6,6-dimethyl-4,5,6,7-tetrahydro-1-benzothien-4-yl)amino)-2-hydroxy-1-(phenylmethyl)propyl)carbamate] |
| 5.29 nM | CCNc1nc(CC(C)(C)C)cc2c1OC1(CCC1)C[C@@H]2NC[C@@H](O)[C@H](Cc1ccc(F)cc1)NC(C)=O [compound 584] |
| 2380 nM | [N-]=[N+]=NCC(=O)N[C@@H](Cc1ccccc1)[C@H](O)CN[C@H]1CC2(CCC2)Oc2ccc(Br)cc21 [compound 698] |
| 72.2 nM | CC(=O)N[C@@H](Cc1ccc(Cl)cc1)[C@H](O)CN[C@H]1C[C@]2(C[C@H](C)C2)Oc2ncc(CC(C)C)cc21 [compound 618, N-((1S,2R)-1-((4-chlorophenyl)methyl)-2-hydroxy-3-(((1s,3R,4′S)-3-methyl-6′-(2-methylpropyl)-3′,4′-dihydrospiro[cyclobutane-1,2′-pyrano[2,3-b]pyridin]-4′-yl)amino)propyl)acetamide] |
| 1200 nM | CC(=O)N[C@@H](Cc1cc(F)cc(F)c1)[C@H](O)CN[C@H]1CC2(CCC2)Oc2ncc(C(F)(F)F)cc21 [compound 700, N-((1S,2R)-1-((3,5-difluorophenyl)methyl)-2-hydroxy-3-(((4′S)-6′-(trifluoromethyl)-3′,4′-dihydrospiro[cyclobutane-1,2′-pyrano[2,3-b]pyridin]-4′-yl)amino)propyl)acetamide] |
| ≥ 10000 nM | CC(=O)N[C@@H](Cc1ccccc1)[C@H](O)CN[C@H]1CC2(CCC2)Oc2ccc(-c3cn(C)nn3)cc21 [compound 521] |
| 14.6 nM | CCCc1nc(C[C@H](NC(C)=O)[C@H](O)CN[C@H]2CC3(CCC3)Oc3ncc(CC(C)(C)C)cc32)cs1 [compound 636, N-((1S,2R)-3-(((4′S)-6′-(2,2-dimethylpropyl)-3′,4′-dihydrospiro[cyclobutane-1,2′-pyrano[2,3-b]pyridin]-4′-yl)amino)-2-hydroxy-1-((2-propyl-1,3-thiazol-4-yl)methyl)propyl)acetamide] |
| 57 nM | CC(C)(C)Cc1cnc2c(c1)[C@@H](NC[C@@H](O)[C@H](Cc1ccc(F)cc1)NC(=O)C(F)(F)F)CC1(CCC1)O2 [compound 631] |
| 141 nM | CC(=O)N[C@@H](Cc1ccc(F)c(Br)c1)[C@H](O)CN[C@H]1CC2(CCC2)Nc2ccc(CC(C)(C)C)cc21 [compound 562, N-((1S,2R)-1-((3-bromo-4-fluorophenyl)methyl)-3-(((4′S)-6′-(2,2-dimethylpropyl)-3′,4′-dihydro-1′H-spiro[cyclobutane-1,2′-quinolin]-4′-yl)amino)-2-hydroxypropyl)acetamide] |
| ≥ 10000 nM | CC(=O)N[C@@H](Cc1ccc(F)cc1)[C@H](O)CN[C@H]1C[C@@]2(CC[C@@H]2C)Oc2ncc(CC(C)(C)C)cc21 [compound 625] |
| 8.61 nM | CC(=O)N[C@@H](Cc1cccc(F)c1F)[C@H](O)CN[C@H]1CC2(CCC2)Oc2ncc([C@H](F)C(C)(C)C)cc21 [compound 677] |
| 254 nM | CC(=O)N[C@@H](Cc1ccc(F)cc1)[C@H](O)CN[C@H]1CC2(CCC2)Oc2ncc(C=C(C)C)cc21 [compound 696] |
| 23.7 nM | CC(=O)N[C@@H](Cc1csc(C)n1)[C@H](O)CN[C@H]1CC2(CCC2)Oc2ncc(CC(C)(C)C)cc21 [compound 639, N-((1S,2R)-3-(((4′S)-6′-(2,2-dimethylpropyl)-3′,4′-dihydrospiro[cyclobutane-1,2′-pyrano[2,3-b]pyridin]-4′-yl)amino)-2-hydroxy-1-((2-methyl-1,3-thiazol-4-yl)methyl)propyl)acetamide] |
| 2.89 nM | CC(=O)N[C@@H](Cc1cccc(F)c1)[C@H](O)CN[C@H]1CC2(CCC2)Oc2c1cc(CC(C)(C)C)nc2NC1CC1 [compound 602] |
| 61.5 nM | CC(=O)N[C@@H](Cc1ccc(Cl)cc1)[C@H](O)CN[C@H]1C[C@]2(CC[C@H]2C)Oc2ncc(CC(C)(C)C)cc21 [compound 624] |
| 4.61 nM | COc1cccc(C[C@H](NC(C)=O)[C@H](O)CN[C@H]2CC3(CCC3)Oc3ncc(CC(C)(C)C)cc32)c1 [compound 579] |
| 22.3 nM | CC(=O)N[C@@H](Cc1ccc(F)cc1)[C@H](O)CN[C@H]1CC2(CCC2)Oc2c1cc(CC(C)(C)C)nc2NC(C)C [compound 585] |
| 1970 nM | CC(=O)N[C@@H](Cc1ccccc1)[C@H](O)CN[C@H]1CC2(CCC2)Oc2c1cc(CC(C)(C)C)cc2N1CCOCC1 [compound 537] |
| 177 nM | CC(=O)N[C@@H](CC(C)C)[C@H](O)CN[C@H]1CC2(CCC2)Oc2ncc(CC(C)(C)C)cc21 [compound 538, N-((1S)-1-((1R)-2-(((4′S)-6′-(2,2-dimethylpropyl)-3′,4′-dihydrospiro[cyclobutane-1,2′-pyrano[2,3-b]pyridin]-4′-yl)amino)-1-hydroxyethyl)-3-methylbutyl)acetamide] |
| 1260 nM | CC(=O)N[C@@H](Cc1ccc(F)cc1)[C@H](O)CN[C@H]1CC2(CCC2)Oc2ncc([C@H](F)C(C)C)cc21 [compound 552, N-((1S,2R)-3-(((4′S)-6′-((1R)-1-fluoro-2-methylpropyl)-3′,4′-dihydrospiro[cyclobutane-1,2′-pyrano[2,3-b]pyridin]-4′-yl)amino)-1-((4-fluorophenyl)methyl)-2-hydroxypropyl)acetamide] |
| 4.64 nM | CC(=O)N[C@@H](Cc1ccc(F)c(C)c1)[C@H](O)CN[C@H]1CC2(CCC2)Oc2ncc(CC(C)(C)C)cc21 [compound 575] |
| 34.8 nM | CC(=O)N[C@@H](Cc1ccc(F)cc1)[C@H](O)CN[C@H]1CC2(CCCC2)Oc2ncc(CC(C)(C)C)cc21 [compound 547] |
| 227 nM | CC(=O)N[C@@H](Cc1cccc(F)c1F)[C@H](O)CN[C@H]1CC2(CCC2)Oc2c1cc(CC(C)(C)C)nc2N(C)C [compound 601] |
| 30 nM | CC(=O)N[C@@H](Cc1ccn(C)c(=O)c1)[C@H](O)CN[C@H]1CC2(CCC2)Oc2ncc(CC(C)(C)C)cc21 [compound 649] |

Same assay, conditions: cell based assay data, Table 4; unit inferred; read-out: Cell Assay

| IC50 | SMILES |
| --- | --- |
| 41.2 nM | CC(=O)N[C@@H](Cc1cc(F)cc(F)c1)[C@H](O)CN[C@H]1CC2(CCC2)Oc2ccc(-n3cccn3)cc21 [compound 777] |
| 3330 nM | C=C[C@H](NC(C)=O)[C@H](O)CN[C@H]1CC2(CCC2)Oc2ncc(CC(C)(C)C)cc21 [compound 740, N-((1S)-1-((1R)-2-(((4′S)-6′-(2,2-dimethylpropyl)-3′,4′-dihydrospiro[cyclobutane-1,2′-pyrano[2,3-b]pyridin]-4′-yl)amino)-1-hydroxyethyl)-2-propen-1-yl)acetamide] |
| 489 nM | CC(=O)N[C@@H](Cc1cccc(F)c1)[C@H](O)CN[C@H]1CC2(CCC2)Oc2cc(F)c(-n3cccn3)cc21 [compound 807] |
| 3240 nM | CC(=O)N[C@@H](Cc1ccccc1)[C@H](O)CN[C@H]1CC2(CCC2)Oc2ccc(-c3ccn(C)n3)cc21 [compound 783] |
| ≥ 10000 nM | CCc1ccc2c(c1)[C@@H](NC[C@@H](O)[C@H](COCc1ccccc1)NC(C)=O)CC1(CCC1)O2 [compound 733] |
| 1420 nM | CC(=O)N[C@@H](CCC(F)(F)F)[C@H](O)CN[C@H]1CC2(CCC2)Oc2ncc(CC(C)(C)C)cc21 [compound 738, N-((1S)-1-((1R)-2-(((4′S)-6′-(2,2-dimethylpropyl)-3′,4′-dihydrospiro[cyclobutane-1,2′-pyrano[2,3-b]pyridin]-4′-yl)amino)-1-hydroxyethyl)-4,4,4-trifluorobutyl)acetamide] |
| 1.26 nM | CC(=O)N[C@@H](Cc1cccc(C#N)c1)[C@H](O)CN[C@H]1CC2(CCC2)Oc2ncc(CC(C)C)cc21 [compound 849] |
| 525 nM | CC(=O)N[C@@H](Cc1cc(F)cc(F)c1)[C@H](O)CN[C@H]1CC(C)(C)Oc2cc(F)c(Br)cc21 [compound 802] |
| 2.32 nM | CC(=O)N[C@@H](Cc1cccnc1)[C@H](O)CN[C@H]1CC2(CCC2)Oc2ncc(CC(C)(C)C)cc21 [compound 824, N-((1S,2R)-3-(((4′S)-6′-(2,2-dimethylpropyl)-3′,4′-dihydrospiro[cyclobutane-1,2′-pyrano[2,3-b]pyridin]-4′-yl)amino)-2-hydroxy-1-(3-pyridinylmethyl)propyl)acetamide] |
| 26.4 nM | CC(=O)N[C@@H](Cc1cccc(F)c1)[C@H](O)CN[C@H]1CC2(CCC2)Oc2ncc(C(F)C(C)C(F)(F)F)cc21 (some centres unmarked) [compound 861] |
| 1650 nM | CC(=O)N[C@@H](Cc1cc(F)cc(F)c1)[C@H](O)CN[C@H]1CC2(CCC2)Oc2ccc(-c3ccn(CC(C)C)n3)cc21 [compound 780] |
| 11.4 nM | CC(=O)N[C@@H](Cc1ccc(F)cc1)[C@H](O)CN[C@H]1CC2(CCC2)Oc2ncc(CC(C)C)cc21 [compound 845] |
| 6.49 nM | CC(=O)N[C@@H](Cc1cc(F)cc(Br)c1)[C@H](O)CN[C@H]1CC2(CCC2)Oc2ncc(CC(C)(C)C)cc21 [compound 763] |
| 10.8 nM | COC(=O)N[C@@H](Cc1cc(F)cc(F)c1)[C@H](O)CN[C@H]1CC2(CCC2)Oc2ncc(CC(C)(C)C)cc21 [compound 876] |
| 6.72 nM | CC(=O)N[C@@H](Cc1cccc(F)c1)[C@H](O)CN[C@H]1CC(C)(C)Oc2cnc(CC(C)(C)C)cc21 [compound 798] |
| ≥ 10000 nM | CC(=O)N[C@@H](Cn1cccn1)[C@H](O)CN[C@H]1CC2(CCC2)Oc2ncc(CC(C)(C)C)cc21 [compound 735] |
| 359 nM | CC(=O)N[C@@H](Cc1cc(F)cc(F)c1)[C@H](O)CN[C@H]1CC2(CCC2)Oc2ccc(N3CCCC3=O)cc21 [compound 793] |
| 52.2 nM | CC(=O)N[C@@H](Cc1ccccc1)[C@H](O)CN[C@H]1CC2(CCC2)Oc2c1cc(CC(C)(C)C)nc2N1CCOCC1 [compound 754] |
| 5370 nM | CCc1ccc2c(c1)[C@@H](NC[C@@H](O)[C@H](Cn1cccn1)NC(C)=O)CC1(CCC1)O2 [compound 734] |
| 42.2 nM | CC(=O)N[C@@H](Cc1cc(F)cc(Cl)c1)[C@H](O)CN[C@H]1CC2(CCC2)Oc2c1cc(CC(C)(C)C)nc2Cl [compound 752] |
